# Assay results as given in ChEMBL document CHEMBL1201862, “PubChem BioAssay data set” (2004).
# Calls of active or inactive are those of the source.
# How the values were obtained:
# [1] = target: T1, Carboxy-terminal domain RNA polymerase II polypeptide A small phosphatase 1 (Homo sapiens, UniProt Q9GZU7); test: CTDSP1 inhibitors, concentration-response, biochemical, absorbance readout, ultra-high-throughput screen actives (AID 540297); format: functional
# T1 sequence (Q9GZU7 whole entry): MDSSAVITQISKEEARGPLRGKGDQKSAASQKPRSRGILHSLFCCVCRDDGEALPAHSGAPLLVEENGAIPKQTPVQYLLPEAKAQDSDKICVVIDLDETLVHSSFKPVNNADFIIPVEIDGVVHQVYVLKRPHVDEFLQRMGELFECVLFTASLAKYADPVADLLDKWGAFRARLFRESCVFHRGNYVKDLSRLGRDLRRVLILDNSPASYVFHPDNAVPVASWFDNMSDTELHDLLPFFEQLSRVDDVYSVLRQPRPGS
# Genome polyprotein = Genome polyprotein (dengue virus type 2, UniProt P29990); test: flavivirus cap methylation enzyme inhibition – biochemical, confirmation dose response, primary screen (AID 588689); format: functional
# Sequence of Genome polyprotein (P29990 2492-3391 limits assumed): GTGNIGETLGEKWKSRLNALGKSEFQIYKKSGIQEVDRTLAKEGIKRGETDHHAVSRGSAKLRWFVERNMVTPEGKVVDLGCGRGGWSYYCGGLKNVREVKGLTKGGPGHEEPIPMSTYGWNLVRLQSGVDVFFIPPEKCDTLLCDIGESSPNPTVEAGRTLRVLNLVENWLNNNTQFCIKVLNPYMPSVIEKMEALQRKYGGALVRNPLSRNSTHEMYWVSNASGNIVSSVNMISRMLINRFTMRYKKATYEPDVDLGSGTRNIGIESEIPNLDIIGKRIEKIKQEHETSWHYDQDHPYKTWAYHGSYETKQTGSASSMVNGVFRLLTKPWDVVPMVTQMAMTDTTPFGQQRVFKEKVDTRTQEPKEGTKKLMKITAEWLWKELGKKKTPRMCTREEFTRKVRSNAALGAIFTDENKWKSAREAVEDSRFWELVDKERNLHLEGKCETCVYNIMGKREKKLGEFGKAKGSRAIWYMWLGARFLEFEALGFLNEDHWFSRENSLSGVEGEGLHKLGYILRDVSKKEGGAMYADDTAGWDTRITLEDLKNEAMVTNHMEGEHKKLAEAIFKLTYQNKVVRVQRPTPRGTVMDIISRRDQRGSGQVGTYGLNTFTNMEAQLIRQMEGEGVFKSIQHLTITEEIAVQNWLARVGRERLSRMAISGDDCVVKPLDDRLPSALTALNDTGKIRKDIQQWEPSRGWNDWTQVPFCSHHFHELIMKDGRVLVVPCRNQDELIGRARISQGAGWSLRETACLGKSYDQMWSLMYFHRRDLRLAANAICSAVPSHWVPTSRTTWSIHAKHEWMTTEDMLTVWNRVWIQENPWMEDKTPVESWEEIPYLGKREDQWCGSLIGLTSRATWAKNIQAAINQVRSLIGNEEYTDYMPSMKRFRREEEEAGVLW
# [2] = target: T2, Calpain-2 catalytic subunit (Sus scrofa, UniProt P43367); test: m-calpain protease blockers, concentration series – biochemical, fluorogenic peptide substrate, dose response (AID 1420); format: functional
# T2 sequence (P43367 whole entry): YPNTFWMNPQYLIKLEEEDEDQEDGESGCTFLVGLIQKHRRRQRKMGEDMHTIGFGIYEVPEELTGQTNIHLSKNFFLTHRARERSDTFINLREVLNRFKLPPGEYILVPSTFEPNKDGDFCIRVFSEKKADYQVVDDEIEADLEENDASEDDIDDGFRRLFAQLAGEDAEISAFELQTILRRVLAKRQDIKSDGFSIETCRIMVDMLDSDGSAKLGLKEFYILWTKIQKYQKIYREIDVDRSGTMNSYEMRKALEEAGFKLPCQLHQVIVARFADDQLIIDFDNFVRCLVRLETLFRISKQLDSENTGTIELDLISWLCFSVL
# [3] = fluconazole-exposed Candida albicans growth modulators – fluorescence, retest, confirmation (AID 2467); format: functional, cell-based
# [4] = NIH-3T3 fibroblast cytotoxicity, dose response, cytotoxicity control, cell-based, fluorescence, Alamar Blue, secondary assay (AID 2327); format: functional;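 further: NIH-3T3 mouse fibroblasts cultured with fluconazole at 8 µg/mL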
# [5] = target: T3, Heat shock factor protein 1 (Mus musculus, UniProt P38532); test: enhancement of HSF1-driven luciferase signal – cell-based, NIH3T3, luminescence, dose retest, confirmation (AID 435004); format: functional;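 further: stress induced by proteasome inhibitor MG132 added 30 min after compound; luciferase reporter driven by HSF1 response element in NIH3T3 cells; actives raise luminescence as potentiators of the MG132 stress response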
# T3 sequence (P38532 whole entry): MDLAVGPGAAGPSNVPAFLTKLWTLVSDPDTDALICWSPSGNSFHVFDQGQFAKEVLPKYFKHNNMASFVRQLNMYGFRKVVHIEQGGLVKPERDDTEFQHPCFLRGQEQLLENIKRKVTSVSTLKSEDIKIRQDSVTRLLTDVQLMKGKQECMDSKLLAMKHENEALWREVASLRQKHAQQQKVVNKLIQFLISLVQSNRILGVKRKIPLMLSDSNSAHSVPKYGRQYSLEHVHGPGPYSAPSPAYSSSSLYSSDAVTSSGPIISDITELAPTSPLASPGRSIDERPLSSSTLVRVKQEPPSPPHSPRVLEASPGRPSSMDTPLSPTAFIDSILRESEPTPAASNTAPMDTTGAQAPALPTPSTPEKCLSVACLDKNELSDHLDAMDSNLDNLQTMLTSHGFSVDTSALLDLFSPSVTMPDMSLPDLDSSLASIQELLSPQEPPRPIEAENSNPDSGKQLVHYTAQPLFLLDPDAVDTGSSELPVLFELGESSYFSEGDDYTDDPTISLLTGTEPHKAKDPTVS
# [6] = target: T4, Short transient receptor potential channel 4 (Mus musculus, UniProt Q9QUQ5); test: calcium entry via TRPC4 opening agents – cell-based, HEK293 TRPC4/mu-opioid, Fluo-4 calcium, dose response (AID 434937); format: functional
# T4 sequence (Q9QUQ5 whole entry): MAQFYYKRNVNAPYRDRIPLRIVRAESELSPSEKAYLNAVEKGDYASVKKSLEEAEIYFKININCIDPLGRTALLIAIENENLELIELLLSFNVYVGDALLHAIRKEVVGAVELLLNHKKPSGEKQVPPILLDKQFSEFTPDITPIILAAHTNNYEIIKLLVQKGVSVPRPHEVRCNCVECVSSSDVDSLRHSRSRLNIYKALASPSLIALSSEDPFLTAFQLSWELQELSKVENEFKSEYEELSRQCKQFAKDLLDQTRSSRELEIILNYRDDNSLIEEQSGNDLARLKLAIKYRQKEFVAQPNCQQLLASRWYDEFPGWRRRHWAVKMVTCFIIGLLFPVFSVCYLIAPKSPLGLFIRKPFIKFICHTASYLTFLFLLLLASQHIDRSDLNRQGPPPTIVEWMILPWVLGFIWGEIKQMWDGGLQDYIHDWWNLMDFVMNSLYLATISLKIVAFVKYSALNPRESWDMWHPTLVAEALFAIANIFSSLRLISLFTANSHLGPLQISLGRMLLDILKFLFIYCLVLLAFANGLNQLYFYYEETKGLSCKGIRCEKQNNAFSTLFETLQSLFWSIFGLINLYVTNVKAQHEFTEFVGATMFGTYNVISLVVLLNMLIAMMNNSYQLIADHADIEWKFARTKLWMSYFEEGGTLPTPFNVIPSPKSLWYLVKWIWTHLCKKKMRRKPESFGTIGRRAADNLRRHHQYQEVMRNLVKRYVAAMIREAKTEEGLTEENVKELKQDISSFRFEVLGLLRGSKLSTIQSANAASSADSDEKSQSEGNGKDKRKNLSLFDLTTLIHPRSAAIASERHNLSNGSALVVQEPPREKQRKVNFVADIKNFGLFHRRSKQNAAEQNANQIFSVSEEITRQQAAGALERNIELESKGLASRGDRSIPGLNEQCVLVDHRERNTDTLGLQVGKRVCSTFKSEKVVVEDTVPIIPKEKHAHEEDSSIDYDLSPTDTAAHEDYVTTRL
# [7] = target: T5, DNA repair protein RAD52 homolog (Homo sapiens, UniProt P43351); format: functional, biochemical
# T5 sequence (P43351 whole entry): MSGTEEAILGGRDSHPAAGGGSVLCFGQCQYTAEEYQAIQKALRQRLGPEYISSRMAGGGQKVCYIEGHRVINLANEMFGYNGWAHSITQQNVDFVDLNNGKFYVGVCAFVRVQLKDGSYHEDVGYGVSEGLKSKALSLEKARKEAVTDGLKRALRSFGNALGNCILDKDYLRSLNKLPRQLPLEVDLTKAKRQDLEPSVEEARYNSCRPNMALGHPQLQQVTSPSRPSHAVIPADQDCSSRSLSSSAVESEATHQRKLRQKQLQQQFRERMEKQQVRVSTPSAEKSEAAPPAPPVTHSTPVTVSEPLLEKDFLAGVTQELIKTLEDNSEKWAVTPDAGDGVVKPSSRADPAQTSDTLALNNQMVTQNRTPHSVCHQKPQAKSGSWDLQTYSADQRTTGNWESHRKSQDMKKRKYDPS
# H9c2 = test: cells; format: functional, cell-based; details: Rattus norvegicus, H9c2, Myocardium;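 further: confirmatory concentration-response retest of ultra-high-throughput screening hits for modulation of myocardial damage; cell death induced by hydrogen peroxide oxidative stress; compound pretreatment for 60 min then peroxide exposure for 2 h; potency is for protecting the cells against peroxide damage rather than for killing them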
# [8] = luciferase reporter signal suppression in cells – H4 neuroglioma cells, luminescence, dose response (AID 1990); format: functional, cell-based
# [9] = Luminescence Cell-Based Dose Response HTS to Identify Inhibitors of 5'UTR Stem-Loop Driven Prion Protein mRNA Translation in H4 Neuroglioblastoma Cells. [Related pubchem assays: 1827 (Project Summary), 1813 (Primary HTS)]; format: functional
# [10] = alpha-synuclein stem-loop luciferase translation blockers – H4 neuroglioma cells, luminescence, confirmation (AID 1988); format: functional, cell-based
# [11] = Trypanosoma cruzi growth suppression in host cells – NIH3T3 host cells, beta-gal luminescence, confirmation (AID 2044); format: functional, cell-based;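 further: intracellular parasites grown in NIH/3T3 mouse fibroblasts as host cells; luminescent beta-galactosidase reporter signal from transgenic T. cruzi replicating inside host cells; inhibitors lower the luminescence signal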
# [12] = NIH3T3 cell viability loss – ATP luminescence, mouse fibroblasts, counter-screen, dose response (AID 2010); format: functional, cell-based;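 further: cells exposed to compound for about 90 hours before reading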
# [13] = target: T6, Ubiquitin-conjugating enzyme E2 N (Homo sapiens, UniProt P61088); format: functional;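 further: Dose-response confirmation in a TR-FRET assay detecting UBC13-driven polyubiquitin chain formation, inhibition measured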
# T6 sequence (P61088 whole entry): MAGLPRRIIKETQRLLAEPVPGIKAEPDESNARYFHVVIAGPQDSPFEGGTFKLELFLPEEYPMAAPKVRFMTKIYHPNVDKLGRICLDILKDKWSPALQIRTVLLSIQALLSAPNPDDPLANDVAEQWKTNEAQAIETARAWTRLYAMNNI
compound,measurement,setting,value
O=C(CN1C(=O)/C(=C2/SC(=S)N(CCS(=O)(=O)O)C2=O)c2ccccc21)Nc1cccc(Br)c1,IC50,[1],3.22 µM (active)
same,IC50,Genome polyprotein,61.6 µM (active)
CC(=O)Nc1ccccc1/C=C/c1ccc2c(C)cc(C)c(O)c2n1,IC50,[2],10.9 µM (not active)
same,EC50,[3],> 38 µM (not active)
same,EC50,[4],31.3 µM (active)
COc1ccc(CCN2C(=O)C3C(C2=O)C2C=CC3C23CC3)cc1OC (stereo not given),EC50,[5],> 260 µM (inactive)
CCCCCc1c(O)nc(SCCN(C)C)nc1O,EC50,[6],4.22 µM (active)
COc1ccc(-c2cc3nc(NCCCN(C)C)n(C)c(=O)c3s2)c(C)c1,AC50,[7],29.3 µM (active)
Cc1ccc(S(=O)(=O)N2CCN(C(=O)c3cc(O)nc4ccccc34)CC2)c(C)c1,IC50,H9c2,> 79 µM (inactive)
CC(=O)N(CCN(C)C)c1nc2cc3c(cc2s1)OCCO3,AC50,[7],11.4 µM (active)
CC1(C)CC2CC(C)(CN2C(=O)COC(=O)Cn2[nH]c(=O)c3ccccc3c2=O)C1 (stereo not given),IC50,H9c2,12.1 µM (active)
CCCN1C(=O)c2ccccc2NC1c1ccc(Cl)c(Cl)c1 (stereo not given),EC50,[5],59.6 µM (active)
same,EC50,[8],16 µM (active)
same,EC50,[9],> 120 µM (not active)
same,EC50,[10],38.8 µM (active)
Cc1sc2nc(C)n(/N=C/c3ccc(O)cc3O)c(=O)c2c1C,EC50,[5],> 260 µM (inactive)
Clc1cccc(OCCN2CCNCC2)c1,EC50,[11],0.744 µM (active)
same,EC50,[12],> 60 µM (not active)
same,EC50,[6],0.841 µM (active)
CC1=C(/C=C/C(=O)O)C(C)(C)CCC1,EC50,[5],> 260 µM (inactive)
O=C(Oc1ccc(/C=N/NC(=O)c2ccccc2O)cc1)c1ccccc1,IC50,[1],8.03 µM (active)
CC[C@H](C)Cc1cn([C@@H](CCCCN)C(=O)NCCCCCCCCCCC(=O)N2CCNCC2)nn1,IC50,[13],> 20 µM (inactive)
same,AC50,[7],13.2 µM (active)
COc1cc(/C=C2/SC(=S)N(CCC(=O)Nc3ccc(C(=O)O)cc3)C2=O)cc(OC)c1OC,IC50,[1],6.91 µM (active)
CN(C(=O)COC(=O)c1cnc(Cl)c(Cl)c1)C1CCS(=O)(=O)C1 (stereo not given),IC50,[2],3.14 µM (not active)
